{
  "source": "patent US20200071380A1",
  "about": "“COMBINATION THERAPIES COMPRISING SIRP ALPHA-BASED CHIMERIC PROTEINS” (Shattuck Labs, Inc., priority 2018, published 2020)",
  "key": {"splenic dendritic cells": {"system": "splenic dendritic cells", "assay": "In vivo splenic dendritic cell activation", "parameters": "species or system mice", "conditions": "versus antibody treated groups", "protocol": "For each panel, the samples are (left to right): untreated, sheep RBCs, αCD47 (MIAP301), αSIRPα (P84), mSIRPα-Fc-CD40L, mSIRPα-Fc-CD40L (24 Hrs), and αCD47 (MIAP301) (24 hrs). FIG. 9B is a quantitation of in vivo dendritic cell activation corresponding to FIG. 9A. Shown is the absolute percent of CD4+ and CD8+ dendritic cells; also gated on CD11c and DC1R2. In FIG. 9B, for each panel, the samples are (left to right): untreated, sheep RBCs, αCD47 (MIAP301), αSIRPα (P84), SIRPα-Fc-CD40L (150 μg), SIRPα-Fc-CD40L (300 μg), SIRPα-Fc-CD40L (300 μg) (24 Hrs), and αCD47 (MIAP301) (24 hrs).\nAn in vivo assay to examine SIRPα/CD47 function in mice was describe in Yi et al., “Splenic Dendritic Cells Survey Red Blood Cells for Missing Self-CD47 to Trigger Adaptive Immune Responses. Immunity. 2015;43(4):764-75) (the contents of which is incorporated by reference in its entirety). This assay detects the activation status of splenic dendritic cells in response to SIRPa/CD47 inhibitors or to infused sheep red blood cells (RBC).\nAfter 6 or 24 hours, mice were euthanized and their spleens excised, dissociated, and assessed by flow cytometry for populations of activated CD4+ dendritic cells (DCs) (FIG. 9A, left panel) or CD8+dendritic cells (FIG. 9A, right panel); both populations of dendritic cells were also positive for MHC II (I-Ab), CD11c, and DC1R2."}, "[1]": {"target": "recombinant hCD47 and recombinant hCD40 (Homo sapiens, UniProt P25942+Q08722)", "assay": "Functional dual ELISA, hCD40 capture and hCD47-His detection", "format": "binding"}, "[2]": {"system": "low Her2-expressing breast cancer cell line (MCF7)", "assay": "Macrophage engulfment of MCF7 cells", "format": "cell-based, human", "conditions": "HER2LOW cell line MCF7"}, "[3]": {"assay": "Repeat-dose safety and activity study in cynomolgus macaques", "format": "in vivo", "protocol": "FIG. 21A-D is a graph showing cynomolgus macaques that were treated with vehicle, or 0.1, 1, 10, and 40 mg/kg of SIRPα-Fc-CD40L. Blood chemistry analysis assessed peripheral erythrocyte counts (FIG. 21A), hemoglobin levels (FIG. 21C), and hematocrit (FIG. 21B). In addition, the fold-change in lymphocyte count from pre-dose to 24 hours post-dose is shown (FIG. 21D).\nThe experiments of this example tested the safety and activity of the human SIRPα-Fc-CD40L chimeric protein following repeat doses in cynomolgus macaques. Briefly, naïve cynomolgus macaques were administered the human SIRPα-Fc-CD40L chimeric protein by intravenous infusion every week, for five consecutive weeks, at doses of 0.1, 1, 10 and 40 mg/kg. Standard hematology and clinical chemistry parameters were collected before and after each dose.\nReceptor occupancy was evaluated on circulating CD40+ lymphocytes."}, "[4]": {"system": "macrophages co-cultured with Toledo lymphoma cells", "assay": "qRT-PCR of macrophages sorted from Toledo lymphoma co-cultures", "format": "cell-based, human", "conditions": "qRT-PCR on macrophages isolated by FACS from Toledo co-cultures", "protocol": "FIG. 8D: Macrophage:Toledo lymphoma co-cultures were harvested 2 hours into phagocytosis assays in the presence of rituximab ([…]), SIRPα-Fc-CD40L ([…]), or the combination of both agents. Macrophages were isolated by CD11b+FACS, RNA was prepared, cDNA synthesized, and gene expression (IFNa1, IFNb1, CD80, and CD86) assessed by qRT-PCR. Fold change was calculated using DDCT and values obtained from the housekeeping gene ACTB, and the corresponding values from untreated samples. […] After 2 hours, co-cultures were isolated from tissue culture vessels and were stained with a fluorescently conjugated CD11b antibody to discriminate macrophages. Cells were then assessed by flow cytometry for the co-localization of fluorescent signal from both cells types. […] After 24-hours type I interferon induced luminescence was assessed using a luminometer. The maximum luminescence (RLU) from each experiment was set to 1, and all other samples were normalized accordingly. […]\nRNA was prepared from macrophages isolated using fluorescent activated cell sorting (FACS) from SIRPα-Fc-CD40L/Rituximab treated co-cultures macrophages and Toledo lymphoma cells. The RNA was assessed by gRT-PCR for expression of IFNα1 and IFNβ1, and the macrophage activation markers CD80 and CD86."}, "[5]": {"system": "cynomolgus macaque erythrocytes", "assay": "In vitro hemolysis assay, cynomolgus macaque erythrocytes", "format": "cell-based", "description": "However, the in vitro systems used to test this question have significant limitations, including a complete lack of macrophages in the test system."}},
  "data": [
    {"substance": "SIRPα-Fc-CD40L: Generic name of the SIRPα ECD-Fc-CD40L ECD chimeric protein; human or murine version depending on the test system", "values": [
      {"measurement": "proportion of overall splenic DCs", "setting": "splenic dendritic cells", "result": "higher proportion of overall splenic DCs than was observed in the antibody treated groups"},
      {"measurement": "simultaneous binding to recombinant hCD47 and recombinant hCD40", "setting": "[1]", "result": "simultaneous binding"},
      {"measurement": "phagocytosis", "setting": "[2]", "result": "demonstrated monotherapy activity"},
      {"measurement": "number of CD40+ cells in the peripheral blood", "setting": "[3]; 0.1, 1, 10 and 40 mg/kg", "result": "dose-dependent decrease in the number of CD40+ cells in the peripheral blood"},
      {"measurement": "hematology parameters", "setting": "[3]; declines also noted in the vehicle control group", "result": "Mild declines in hematology parameters"},
      {"measurement": "total number of lymphocytes before and after each dose", "setting": "[3]; episodic fluctuation", "result": "did not depart from the upper and lower range of normal"},
      {"measurement": "serum cytokines (CCL2, CXCL9, CXCL10, IL-6, IL-15, IL-17A, IL-23)", "setting": "[3]; following each infusion", "result": "dose-dependent increases in multiple serum cytokines"},
      {"measurement": "macrophage activation (CD80, CD86) and expression of type I interferon genes (IFNα1, IFNβ1)", "setting": "[4]", "result": "induced macrophage activation and the expression of type I interferon genes"},
      {"measurement": "hemolysis in vitro", "setting": "[5]", "result": "did not reveal evidence of hemolysis"}
    ]}
  ]
}
